{"source": "patent US9409952B2", "about": "“Peptide-compound cyclization method” (Chugai Seiyaku Kabushiki Kaisha, priority 2011, dated 2016)", "key": {"[1]": {"test": "PAMPA (parallel artificial membrane permeability assay)", "type": "in vitro ADME", "conditions": "PAMPA; membrane permeation rate (Pe); 50 mM MOPSO buffer pH 6.5 with 5.0% glycocholic acid, 37° C., 18 hours; read-out: iPAMPA Pe", "in_short": "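Artificial membrane was 10% (w/v) egg lecithin plus 0.5% (w/v) cholesterol in dodecane on a PVDF filter. A 10 mM DMSO stock was added at 0.5% (v/v) to donor buffer (50 mM MOPSO, pH 6.5, 5.0% glycocholic acid). After 18 h at 37 °C, LC/MS or LC/UV gave donor and acceptor levels for Pe.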"}, "[2]": {"test": "Metabolic stability in human hepatic microsome", "type": "in vitro ADME", "conditions": "microsomes, pH 7.4; human hepatic microsome, NADPH(+); read-out: CL NADPH(+)"}}, "note": "Starred links: 1 amine or outer side, 2 acyl side, 3 side chain; linkers in the order of their positions; H or OH if unused. Positions of bridges follow the written chain, without caps; N, C: chain ends. Non-standard residues stand in square brackets, D forms with d. Residues, ends and D or L forms follow the SMILES beside them. *: point of attachment. NMeF = CN[C@@H](Cc1ccccc1)C(=O)O; NMeβAla = CN(CCC(=O)[*:2])[*:1]; NMeL = CN[C@@H](CC(C)C)C(=O)O; NMeV = CN[C@H](C(=O)O)C(C)C; NMeA = CN[C@@H](C)C(=O)O; Piperidide = C1CCN(*)CC1; dNMeA = CN[C@H](C)C(=O)O; Sar = CNCC(=O)O; tBu = CC(C)(C)*"}
{"smiles": "CC[C@H](C)[C@@H]1NC(=O)[C@H](CC(C)C)N(C)C(=O)[C@H](CC(C)C)NC(=O)[C@H](Cc2ccccc2)NC(=O)[C@H]([C@@H](C)O)NC(=O)[C@H](Cc2ccccc2)NC(=O)[C@@H](C)N(C)C(=O)C[C@@H](C(=O)N2CCCCC2)NC(=O)CNC(=O)[C@H](Cc2ccccc2)NC1=O", "note": "[DP-431] ([dNMeA]FTFL[NMeL]IFGD-Piperidide; lactam N-10)", "values": [{"measurement": "Papp at 18 hours, 50 µM", "setting": "[1]", "result": 340, "unit": "nm/s"}, {"measurement": "microsomal CLint at 1 uM", "setting": "[2]", "result": 239, "unit": "µL/min/mg"}]}
{"smiles": "CC[C@H](C)[C@@H]1NC(=O)[C@H](CC(C)C)N(C)C(=O)[C@H](Cc2ccccc2)NC(=O)[C@H]([C@@H](C)O)NC(=O)[C@H](CC(C)C)N(C)C(=O)[C@H](C(C)C)N(C)C(=O)[C@@H](C)N(C)C(=O)C[C@@H](C(=O)N2CCCCC2)NC(=O)[C@H](CC(C)C)NC(=O)[C@H](Cc2ccccc2)N(C)C1=O", "note": "[DP-432] ([dNMeA][NMeV][NMeL]TF[NMeL]I[NMeF]LD-Piperidide; lactam N-10)", "values": [{"measurement": "Papp at 18 hours, 50 µM", "setting": "[1]", "result": 260, "unit": "nm/s"}, {"measurement": "microsomal CLint at 1 uM", "setting": "[2]", "result": 396, "unit": "µL/min/mg"}]}
{"smiles": "CC[C@H](C)[C@@H]1NC(=O)CN(C)C(=O)[C@H]([C@@H](C)O)NC(=O)[C@H](C(C)C)N(C)C(=O)[C@@H](C)N(C)C(=O)C[C@@H](C(=O)N2CCCCC2)NC(=O)[C@H](CC(C)C)NC(=O)[C@H](Cc2ccccc2)N(C)C(=O)[C@H](CC(C)C)N(C)C(=O)[C@H](C)N(C)C1=O", "note": "[DP-433] ([dNMeA][NMeV]T[Sar]I[NMeA][NMeL][NMeF]LD-Piperidide; lactam N-10)", "values": [{"measurement": "Papp at 18 hours, 50 µM", "setting": "[1]", "result": 450, "unit": "nm/s"}, {"measurement": "microsomal CLint at 1 uM", "setting": "[2]", "result": 35, "unit": "µL/min/mg"}]}
{"smiles": "CC[C@H](C)[C@@H]1NC(=O)[C@H](Cc2ccccc2)N(C)C(=O)[C@H](CC(C)C)N(C)C(=O)[C@H](Cc2ccccc2)NC(=O)[C@H](C)N(C)C(=O)[C@H]([C@@H](C)O)NC(=O)[C@@H](C)N(C)C(=O)C[C@@H](C(=O)N2CCCCC2)NC(=O)[C@H](CC(C)C)N(C)C(=O)[C@H](C(C)C)N(C)C1=O", "note": "[DP-434] ([dNMeA]T[NMeA]F[NMeL][NMeF]I[NMeV][NMeL]D-Piperidide; lactam N-10)", "values": [{"measurement": "Papp at 18 hours, 50 µM", "setting": "[1]", "result": 380, "unit": "nm/s"}, {"measurement": "microsomal CLint at 1 uM", "setting": "[2]", "result": 166, "unit": "µL/min/mg"}]}
{"smiles": "CC(C)C[C@H]1C(=O)N(C)[C@@H](C)C(=O)N(C)[C@@H](CC(C)C)C(=O)N[C@H](C(=O)N2CCCCC2)CC(=O)N(C)[C@H](C)C(=O)N(C)[C@@H](Cc2ccccc2)C(=O)N[C@@H]([C@@H](C)O)C(=O)N(C)[C@@H](C)C(=O)N(C)[C@@H](CC(C)C)C(=O)NCC(=O)N1C", "note": "[DP-435] ([dNMeA][NMeF]T[NMeA][NMeL]G[NMeL][NMeA][NMeL]D-Piperidide; lactam N-10)", "values": [{"measurement": "Papp at 18 hours, 50 µM", "setting": "[1]", "result": 160, "unit": "nm/s"}, {"measurement": "microsomal CLint at 1 uM", "setting": "[2]", "result": 41, "unit": "µL/min/mg"}]}
{"smiles": "CC[C@H](C)[C@@H]1NC(=O)[C@H](Cc2ccccc2)NC(=O)[C@H](CC(C)C)NC(=O)CNC(=O)[C@H]([C@@H](C)O)NC(=O)[C@H](Cc2ccccc2)NC(=O)[C@H](C)N(C)C(=O)C[C@@H](C(=O)N2CCCCC2)NC(=O)[C@H](Cc2ccccc2)NC(=O)[C@H](CC(C)C)N(C)C1=O", "note": "[DP-436] ([NMeA]FTGLFI[NMeL]FD-Piperidide; lactam N-10)", "values": [{"measurement": "Papp at 18 hours, 50 µM", "setting": "[1]", "result": 450, "unit": "nm/s"}, {"measurement": "microsomal CLint at 1 uM", "setting": "[2]", "result": 142, "unit": "µL/min/mg"}]}
{"smiles": "CC(C)C[C@@H]1NC(=O)[C@H](Cc2ccccc2)N(C)C(=O)CNC(=O)[C@H]([C@@H](C)O)NC(=O)[C@H](CC(C)C)N(C)C(=O)[C@H](COC(C)(C)C)NC(=O)[C@H](C)N(C)C(=O)C[C@@H](C(=O)N2CCCCC2)NC(=O)[C@H](Cc2ccccc2)NC(=O)[C@H](CC(C)C)N(C)C1=O", "note": "[DP-437] ([NMeA]S(tBu)[NMeL]TG[NMeF]L[NMeL]FD-Piperidide; lactam N-10)", "values": [{"measurement": "Papp at 18 hours, 50 µM", "setting": "[1]", "result": 370, "unit": "nm/s"}, {"measurement": "microsomal CLint at 1 uM", "setting": "[2]", "result": 265, "unit": "µL/min/mg"}]}
{"smiles": "CC(C)C[C@H]1C(=O)N(C)[C@@H](Cc2ccccc2)C(=O)N[C@@H](Cc2ccccc2)C(=O)N(C)[C@@H](C)C(=O)N(C)[C@@H](C(C)C)C(=O)N[C@@H]([C@@H](C)O)C(=O)N[C@H](C(=O)N2CCCCC2)CC(=O)N(C)[C@@H](C)C(=O)N[C@@H](COC(C)(C)C)C(=O)NCC(=O)N1C", "note": "[DP-438] ([NMeA]S(tBu)G[NMeL][NMeF]F[NMeA][NMeV]TD-Piperidide; lactam N-10)", "values": [{"measurement": "Papp at 18 hours, 50 µM", "setting": "[1]", "result": 380, "unit": "nm/s"}, {"measurement": "microsomal CLint at 1 uM", "setting": "[2]", "result": 155, "unit": "µL/min/mg"}]}
{"smiles": "CC[C@H](C)[C@@H]1NC(=O)[C@H](CC(C)C)N(C)C(=O)[C@H](CC(C)C)N(C)C(=O)[C@H](C)N(C)C(=O)[C@H]([C@@H](C)O)NC(=O)[C@H](C(C)C)N(C)C(=O)[C@H](Cc2ccccc2)NC(=O)CN(C)C(=O)[C@H](C)N(C)C(=O)C[C@@H](C(=O)N2CCCCC2)NC1=O", "note": "[DP-439] ([NMeA][Sar]F[NMeV]T[NMeA][NMeL][NMeL]ID-Piperidide; lactam N-10)", "values": [{"measurement": "Papp at 18 hours, 50 µM", "setting": "[1]", "result": 340, "unit": "nm/s"}, {"measurement": "microsomal CLint at 1 uM", "setting": "[2]", "result": 139, "unit": "µL/min/mg"}]}
{"smiles": "CC[C@H](C)[C@@H]1NC(=O)CN(C)C(=O)[C@H]([C@@H](C)O)NC(=O)[C@H](CC(C)C)N(C)C(=O)[C@H](Cc2ccccc2)N(C)C(=O)CCN(C)C(=O)C[C@@H](C(=O)N2CCCCC2)NC(=O)[C@H](CC(C)C)N(C)C(=O)[C@H](CC(C)C)N(C)C1=O", "note": "[DP-440] ([NMeβAla][NMeF][NMeL]T[Sar]I[NMeL][NMeL]D-Piperidide; lactam N-9)", "values": [{"measurement": "Papp at 18 hours, 50 µM", "setting": "[1]", "result": 290, "unit": "nm/s"}, {"measurement": "microsomal CLint at 1 uM", "setting": "[2]", "result": 124, "unit": "µL/min/mg"}]}
{"smiles": "CC(C)C[C@@H]1NC(=O)[C@H](Cc2ccccc2)N(C)C(=O)[C@H](CC(C)C)N(C)C(=O)[C@@H](C)N(C)C(=O)C[C@@H](C(=O)N2CCCCC2)NC(=O)[C@H](CC(C)C)N(C)C(=O)[C@H](Cc2ccccc2)N(C)C(=O)[C@H]([C@@H](C)O)NC(=O)[C@H](Cc2ccccc2)N(C)C1=O", "note": "[DP-441] ([dNMeA][NMeL][NMeF]L[NMeF]T[NMeF][NMeL]D-Piperidide; lactam N-9)", "values": [{"measurement": "Papp at 18 hours, 50 µM", "setting": "[1]", "result": 370, "unit": "nm/s"}, {"measurement": "microsomal CLint at 1 uM", "setting": "[2]", "result": 123, "unit": "µL/min/mg"}]}
{"smiles": "CC(C)C[C@@H]1NC(=O)[C@H](CC(C)C)N(C)C(=O)[C@H](C)N(C)C(=O)C[C@@H](C(=O)N2CCCCC2)NC(=O)[C@H](CC(C)C)N(C)C(=O)[C@H](Cc2ccccc2)N(C)C(=O)[C@H](Cc2ccccc2)N(C)C(=O)[C@H]([C@@H](C)O)NC(=O)[C@H](Cc2ccccc2)N(C)C1=O", "note": "[DP-442] ([NMeA][NMeL]L[NMeF]T[NMeF][NMeF][NMeL]D-Piperidide; lactam N-9)", "values": [{"measurement": "Papp at 18 hours, 50 µM", "setting": "[1]", "result": 380, "unit": "nm/s"}, {"measurement": "microsomal CLint at 1 uM", "setting": "[2]", "result": 159, "unit": "µL/min/mg"}]}
{"smiles": "CC(C)C[C@H]1C(=O)N(C)[C@@H](C)C(=O)N[C@H](C(=O)N(C)[C@@H](Cc2ccccc2)C(=O)N[C@@H](C)C(=O)N2CCCCC2)CC(=O)N(C)[C@H](C)C(=O)N(C)[C@@H](C)C(=O)N[C@@H](C)C(=O)N(C)[C@@H](Cc2ccccc2)C(=O)N(C)[C@@H](C)C(=O)N(C)[C@@H](Cc2ccccc2)C(=O)N[C@@H]([C@@H](C)O)C(=O)N(C)[C@@H](C)C(=O)N1C", "note": "[DP-443] ([dNMeA][NMeA]A[NMeF][NMeA][NMeF]T[NMeA][NMeL][NMeA]D[NMeF]A-Piperidide; lactam N-11)", "values": [{"measurement": "Papp at 18 hours, 50 µM", "setting": "[1]", "result": 91, "unit": "nm/s"}, {"measurement": "microsomal CLint at 1 uM", "setting": "[2]", "result": 17, "unit": "µL/min/mg"}]}
{"smiles": "CC(C)C[C@H]1C(=O)N(C)[C@@H](C)C(=O)N[C@@H]([C@@H](C)O)C(=O)N(C)[C@@H](C)C(=O)N(C)[C@@H](Cc2ccccc2)C(=O)N(C)[C@@H](C)C(=O)N[C@@H](C)C(=O)N(C)[C@@H](C)C(=O)N(C)[C@@H](C)C(=O)N[C@H](C(=O)N(C)[C@@H](Cc2ccccc2)C(=O)N[C@@H](C)C(=O)N2CCCCC2)CC(=O)N(C)[C@H](C)C(=O)N1C", "note": "[DP-444] ([dNMeA][NMeL][NMeA]T[NMeA][NMeF][NMeA]A[NMeA][NMeA]D[NMeF]A-Piperidide; lactam N-11)", "values": [{"measurement": "Papp at 18 hours, 50 µM", "setting": "[1]", "result": 7.2, "unit": "nm/s"}, {"measurement": "microsomal CLint at 1 uM", "setting": "[2]", "result": 3, "unit": "µL/min/mg"}]}
